Measurements: patent US5902815A, “Use of 5HT-2A serotonin agonists to prevent adverse effects of NMDA receptor hypofunction” (priority 1996, dated 1999)
Entries after “also recorded” stand apart in the source; their conditions may differ. Where two headings read alike, the source gives them in different places.

Tests used:
[1] = test system: NR/hypo-induced vacuoles in PC/RS cortical neurons (MK-801); assay: Anti-psychotic drugs and sigma blockers: protection against NR/hypo-induced vacuoles; format: in vivo, rats; conditions: for ED50: Rattus norvegicus, Cortical neurone, read-out: ED50 in protecting against NR/hypo-induced vacuoles; for ED50 / activity in protecting against NR/hypo-induced vacuoles (words): ip; for activity in protecting against NR/hypo-induced vacuoles (words) / effect on vacuole formation: rats, MK-801; for activity in protecting against NR/hypo-induced vacuoles (words): sulpiride given only 15 minutes prior to MK-801
Experimental: Several of the antipsychotic agents tested (haloperidol, thioridazine and loxapine) are known to interact with both dopamine receptors and sigma receptors.
Control animals received saline or DMSO, but no anti-psychotic drugs. Test animals were injected ip with an antipsychotic drug, listed above and in Table 2. Vacuoles were counted and data were processed as described in Example 1.

5HT-2A receptors = conditions: Burris et al 1991 or other literature; cited from earlier work
[2] = test system: vacuolated pyramidal neurons of posterior cingulate and retrosplenial (PC/RS) cortices, MK-801 neurotoxicity; assay: Blocking MK-801 neurotoxicity (vacuolated PC/RS cortical neurons) in rats by serotonergic agents; format: in vivo, adult female rats; conditions: for ED50: Rattus norvegicus, Pyramidal neuron, read-out: ED50 in blocking MK-801 neurotoxicity, rats
Experimental: Each test rat also received a 5HT-2A/2C agonist drug (LSD, DOB, DOI, or DOM), while control rats received an inert carrier liquid as a placebo. After 4 hours, the rats were sacrificed, and brain tissue from specific regions which are susceptible to NR/hypo damage (layers III and IV of the posterior cingulate (PC) and retrosplenial (RS) cortices) were examined for vacuoles in the neurons, which are an indicator of toxic neuronal injury induced by NMDA receptor hypofunction.
DOI was purchased from Research Biochemicals International (Natick, Mass.).
(§1) For each test agent, at least 20 rats were used, and at least four dosages were tested.
(§2) The rats were sacrificed four hours after drug administration, and brain tissue from the PC/RS region was histopathologically evaluated by previously described methods using double-blinded techniques (Olney et al 1991). The number of vacuolated PC and RS neurons were counted on each side of the brain at a rostrocaudal level immediately posterior to where the corpus callosum ceases decussating across the midline (approximately 5.6 mm caudal to Bregma; Paxinos & Watson, The Rat Brain in Stereotaxic Coordinates, 2d Ed., 1986).
This drug is widely used in Europe, and is a 5HT-2A agonist but a 5HT-2C antagonist.
It is described in Nozulak et al 1993.

5HT2C receptors = conditions: Burris et al 1991 or other literature; cited from earlier work
cerebrocortical neurons = conditions: cited from earlier work
schizophrenia = conditions: cited from earlier work
5HT-6 = conditions: cited from earlier work
5HT-7 = conditions: cited from earlier work
5HT-2C = conditions: cited from earlier work
5HT-3 = conditions: cited from earlier work
[3] = test system: NMDA antagonist toxic side effects; assay: Safener drugs against NMDA antagonist toxic side effects (earlier findings); format: in vivo; conditions: Applicants' discovery, no data given
humans = conditions: cited from earlier work; for psychotomimetic reactions / psychosis in humans: NMDA antagonists
5HT-2A/2C receptor = assay: 5HT-2A/2C antagonist block of agonist protection against MK-801 neurotoxicity; format: in vivo, adult female rats
From the text: The following example confirms that the neuroprotective effects provided by 5HT-2A/2C agonists are mediated through either the 5HT-2A or 5HT-2C receptor (or both), rather than through cross-reactivity at some other receptor or through some other mechanism. This was done by showing that these neuroprotective effects are blocked by selective 5HT-2A/2C antagonists.
Ritanserin is an antagonist drug that selectively blocks activation of 5HT-2A/2C receptors.
The brains were processed and the severity of damage was assessed as described in Example 1. Results were analyzed by analysis of covariance (ANCOVA) where the dose of DOI was the covariate and the presence of ritanserin served as the classification (treatment) variable. The homogeneity of slopes assumption was tested by determining whether there was a significant interaction between the covariate and the treatment variable.

[4] = test system: pyramidal neurons in layers III and IV of the posterior cingulate (PC) and retrosplenial (RS) cortices; assay: Neurotoxic reaction to MK-801 in control rats (vacuolated neurons per section); format: in vivo, adult female rats; conditions: MK-801 0.5 mg/kg sc plus vehicle; ± SEM; n=26
Experimental: as §1, §2

[5] = test system: NMDA receptors in chick embryo retina; assay: Excitotoxicity in chick embryo retina (NMDA with MK-801, LSD or DOI); conditions: MK-801 500 nM plus NMDA 40 μM, with or without LSD or DOI 500 nM to 100 μM; n=6 per condition
Experimental: Several tests were performed to ensure that when a 5HT-2A agonist is administered together with an NMDA antagonist, the 5HT-2A agonist will not interfere with the activity of the NMDA antagonist drug at NMDA receptors.
These experiments were performed using segments of chick embryo retina. This is a widely used model for studying the production and prevention of excitotoxic phenomena, since it is simple and inexpensive. Chick tissue is used, since it tends to provide a better model of adult mammalian tissue than embryonic or juvenile mammalian tissue. Unlike newborn mammals, which are usually blind at birth, baby chicks can see quite well as soon as they emerge from the shell, and the NMDA receptors in chick retinal tissue are fully mature and functional.
In these tests, NMDA was introduced into the incubation medium in a concentration (40 μM) sufficient to produce a fully developed excitotoxic lesion within 30 min, displaying acute degeneration and necrosis of the majority of neurons in the inner layers of the retina.

craving for cocaine = conditions: Sershen 1994; cited from earlier work
[6] = ip, 4 h, MK-801 0.5 mg/kg sc, test compound ip, dose reducing mean vacuolated neurons to 50% of control, 4 h
[7] = Olney et al 1989, Corso et al 1994, adult rat

For CCN1CCCC1CNC(=O)c1cc(S(N)(=O)=O)ccc1OC (stereo not shown) [Sulpiride], the ED50 [1] was > 200 mg/kg, the “activity in protecting against NR/hypo-induced vacuoles (words)” value [1] was “Inactive” and the “activity in protecting against NR/hypo-induced vacuoles (words)” value ([1]; listed as sulpiride) was “inactive”.
In the case of COc1cc(CC(C)N)c(OC)cc1C (stereo not shown) [DOM, 1-(2,5-dimethoxy-4-methylphenyl)-2-aminopropane], the “activity at 5HT-2A receptors” value (5HT-2A receptors) is given as “selectively activate 5HT-2A and 5HT-2C receptors with higher affinity than other 5HT receptors”, the ED50 [2, 6] is given as 0.81 mg/kg and the “activity at 5HT-2C receptors” value (5HT2C receptors) is given as “selectively activate 5HT-2A and 5HT-2C receptors with higher affinity than other 5HT receptors”.
For CCNC1(c2cccs2)CCCCC1=O (stereo not shown) [Tiletamine], the “pathomorphological changes in brain” value (cerebrocortical neurons; [7]) is given as “cause pathomorphological changes in the cerebral cortex of adult rats”.
For CN1CC[C@@H]2CN3CCc4cccc(c43)[C@@H]2C1.O=C(O)/C=C/C(=O)O [SDZ SER-082], the “effect on MK-801 neurotoxicity” value ([2]; selective 5HT-2C antagonist, n=22) is given as “did not affect MK-801 neurotoxicity, either positively or negatively” and the “activity at 5HT-2C receptors” value (5HT2C receptors) is given as “selective 5HT-2C antagonist”.
In the case of N[C@@H](Cc1c[nH]c2ccccc12)C(=O)O [tryptophan], the “effect on symptoms of schizophrenia” value (schizophrenia; schizophrenic patients) is given as “can exacerbate the symptoms and displays of schizophrenia”.
In the case of CN1CCN(C2=Nc3cc(Cl)ccc3Nc3ccccc32)CC1 [Clozapine], the “affinity for 5HT-6” value (5HT-6) is listed as “high affinity”, the ED50 [1] is listed as 3.2 mg/kg and the “affinity for 5HT-7” value (5HT-7) is listed as “high affinity”. For the same molecule, the “affinity for 5HT-2C” value (5HT-2C) was “high affinity” and the “affinity for 5HT-3” value (5HT-3) was “high affinity”.
With CN1CCN(C2=Nc3ccccc3Oc3ccc(Cl)cc32)CC1 [Loxapine] the ED50 [1] was 23.6 mg/kg.
With CSc1ccc2c(c1)N(CCC1CCCCN1C)c1ccccc1S2 (stereo not shown) [Thioridazine] the ED50 [1] was 55.3 mg/kg.
For C=CCC1(C(C)CCC)C(=O)NC(=O)NC1=O (stereo not shown) [secobarbitol], the “prevention of NMDA antagonist toxic side effects” value [3] was “prevent NMDA antagonists from causing toxic side effects”.
With O=C(CCCN1CCC(O)(c2ccc(Cl)cc2)CC1)c1ccc(F)cc1 [Haloperidol] the ED50 [1] was 5.1 mg/kg.
In the case of CCN(CC)C(=O)[C@@H]1C=C2c3cccc4[nH]cc(c34)C[C@H]2N(C)C1 [LSD, lysergic acid diethylamide], the “activity at 5HT-2A receptors” value (5HT-2A receptors) is listed as “agonizes 5HT-2A and 5HT-2C receptors”, the ED50 [2, 6] is listed as 0.68 mg/kg and the “ED50 in blocking MK-801 neurotoxicity” value ([2]; rats, MK-801 0.5 mg/kg sc, test compound ip, dose reducing mean vacuolated neurons to 50% of control, 4 h, 240 min) is listed as 0.67 mg/kg. For the same molecule, the “activity at 5HT-2C receptors” value (5HT2C receptors) was “agonizes 5HT-2A and 5HT-2C receptors”.
In the case of c1ccc(C2(N3CCCCC3)CCCCC2)cc1 [Phencyclidine], the “psychotomimetic reactions / psychosis in humans” value (humans) is given as “can induce a psychosis which is clinically indistinguishable from schizophrenia” and the “pathomorphological changes in brain” value (cerebrocortical neurons; [7]) is given as “produce pathomorphological changes in various corticolimbic regions of the adult rat brain”.
Clc1ccc2c(c1)C(N1CCNCC1)=Nc1ccccc1O2 [Amoxapine] gave an ED50 [1] of 75 mg/kg.
In the case of COc1cccc([C@H](O)C2CCN(CCc3ccc(F)cc3)CC2)c1OC [MDL 100,907], the “activity at 5HT-2A receptors” value (5HT-2A receptors) is given as “preferentially antagonizes 2A receptors” and the “activity at 5HT-2C receptors” value (5HT2C receptors) is given as “does not substantially affect 2C receptors”.
For Cc1nc2sccn2c(=O)c1CCN1CCC(=C(c2ccc(F)cc2)c2ccc(F)cc2)CC1 [ritanserin], the “effect of antagonist on DOI's protection” value (5HT-2A/2C receptor; ritanserin 0.03 mg/kg ip plus various doses of DOI, F(1,84)=23.36, p<0.0005) is given as “competitively blocks DOI's protective effects against the toxic side effects of MK-801; also recorded: significantly interfered with DOI's protection”, the “shift of the DOI blocking curve by ritanserin” value (5HT-2A/2C receptor; ritanserin 0.03 mg/kg ip, FIG. 3) is given as “shifted the blocking curve to the right” and the “effect on positive symptoms of schizophrenia” value (schizophrenia; hallucinations, delusions) is given as “did not help relieve "positive" symptoms”. For the same molecule, the “effect on symptoms of schizophrenia” value (schizophrenia; schizophrenic patients) was “only helped relieve certain "negative" symptoms of schizophrenia” and the “effect on exacerbation of schizophrenia by mCPP” value (schizophrenia; schizophrenic patients, mCPP) was “can be blocked”.
For CN1CCN(C2=Nc3cc(F)ccc3Cc3ccccc32)CC1 [Fluperlapine], the ED50 [1] was 2.3 mg/kg and the “effect on vacuole formation” value [1] was “shown to reduce vacuole formation”.
For COc1cc(CC(C)N)c(OC)cc1Br (stereo not shown) [DOB, 1-(2,5-dimethoxy-4-bromophenyl)-2-aminopropane], the “activity at 5HT-2A receptors” value (5HT-2A receptors) is listed as “selectively activate 5HT-2A and 5HT-2C receptors with higher affinity than other 5HT receptors”, the ED50 [2, 6] is listed as 0.36 mg/kg and the “activity at 5HT-2C receptors” value (5HT2C receptors) is listed as “selectively activate 5HT-2A and 5HT-2C receptors with higher affinity than other 5HT receptors”.
In the case of Cc1cc2c(s1)Nc1ccccc1N=C2N1CCN(C)CC1 [Olanzapine], the ED50 [1] is reported as 1.4 mg/kg and the “effect on vacuole formation” value [1] is reported as “shown to reduce vacuole formation”.
Cc1ccccc1N=C(N)Nc1ccccc1C [Di(2-tolyl)guanidine, di(2-tolyl)guanidine] showed an ED50 [1] of 22.2 mg/kg.
C[C@@H]1CN(CCCn2c3ccccc3c3ccccc32)C[C@H](C)N1 [Rimcazole] showed an ED50 [1] of 17.8 mg/kg.
For C[C@]12N[C@H](Cc3ccccc31)c1ccccc12 [MK-801, (+)-5-methyl-10,11-dihydro-5H-di[a,d]cyclohepten-5,10-imine], the “mean number of vacuolated neurons per section” value [4] was 223±10.5 and the “protection against NMDA excitotoxic damage” value [5] was “completely protected against excitotoxic damage; also recorded: showed no cytopathology”.
In the case of CCN(CC)C(=O)N[C@H]1C=C2c3cccc4[nH]cc(c34)C[C@H]2N(C)C1 [Lisuride], the hallucinations (humans; in vivo) is given as “does not cause hallucinations” and the “prevention of the neurotoxic action of MK-801 / vacuole formation” value ([2]; rats, 5HT-2A/2C agonists, ip) is given as “can prevent vacuole formation caused by MK-801”.
For CCNC(C)Cc1cccc(C(F)(F)F)c1 (stereo not shown) [fenfluramine], the “effect on symptoms of schizophrenia” value (schizophrenia; schizophrenic patients) is listed as “can exacerbate the symptoms and displays of schizophrenia”.
In the case of CC[C@H]1C[C@H]2C[C@H]3c4[nH]c5ccc(OC)cc5c4CCN(C2)[C@@H]13 [ibogaine], the “suppression of craving for cocaine” value (craving for cocaine) is listed as “can suppress the craving for cocaine”.
For COc1cc(CC(C)N)c(OC)cc1I (stereo not shown) [DOI, 1-(2,5-dimethoxy-4-iodophenyl)-2-aminopropane], the “activity at 5HT-2A receptors” value (5HT-2A receptors) is listed as “selectively activate 5HT-2A and 5HT-2C receptors with higher affinity than other 5HT receptors”, the “protection against NMDA antagonist toxicity with SDZ SER-082 added” value ([2]; DOI n=29, SDZ SER-082 added to block 5HT-2C receptor) is listed as “found to protect against NMDA antagonist toxicity” and the ED50 [2, 6] is listed as 1.05 mg/kg. For the same molecule, the “activity at 5HT-2C receptors” value (5HT2C receptors) was “selectively activate 5HT-2A and 5HT-2C receptors with higher affinity than other 5HT receptors”.
In the case of CNC1(c2ccccc2Cl)CCCCC1=O (stereo not shown) [Ketamine], the “psychotomimetic reactions / psychosis in humans” value (humans) is listed as “produces symptoms in normal humans that are indistinguishable from the symptoms of psychosis and thought disorder seen in schizophrenia”, the duration of action (humans; anesthetic, intravenous) is listed as “about 15 minutes” and the “pathomorphological changes in brain” value (cerebrocortical neurons; rat, in vivo) is listed as “cause pathomorphological changes in the cerebral cortex of adult rats”.
